The source of these data is ChEMBL document CHEMBL3351572, “Almiramide D, cytotoxic peptide from the marine cyanobacterium Oscillatoria nigroviridis” (Bioorg Med Chem, 2014).

Molecules are shown by their SMILES. Where a SMILES comes first, the peptide text is derived from it. [ ]: non-standard residue; d: D form. The star is where a group is joined. Oct7ynoyl(2R-Me) = C#CCCCC[C@@H](C)C(=O)*; NMeF = CN[C@@H](Cc1ccccc1)C(=O)O; NMeI = CC[C@H](C)[C@H](NC)C(=O)O; NMeV = CN[C@H](C(=O)O)C(C)C; NMeA = CN[C@@H](C)C(=O)O

Data set [1] is described as follows: Cytotoxicity against human PC3 cells after 48 hrs by alamar blue assay. It is filed as functional, cell-based. The following applies: PC-3, 48 h. (In general: The colour change of resazurin is a common sign of viable cells or microbes.)
The subject of another data set is HeLa. The data set is described as follows: Cytotoxicity against human HeLa cells after 48 hrs by alamar blue assay. It is filed as functional, cell-based.
A further data set has as its system A549. The data set is described as follows: Cytotoxicity against human A549 cells after 48 hrs by alamar blue assay. The data set is classed as functional, cell-based. The following applies: A549, 48 h.
The next data set deals with HT-29. The data set is described as follows: Cytotoxicity against human HT-29 cells after 48 hrs by alamar blue assay. The following applies: HT-29, 48 h. The data set is classed as functional, cell-based.
The subject of a further data set is MDA-MB-231. As to the kind of experiment: Cytotoxicity against human MDA-MB-231 cells after 48 hrs by alamar blue assay. It is filed as functional, cell-based. The following applies: MDA-MB-231, 48 h.
For a further data set, the system named is Artemia. The data set is described as follows: Cytotoxicity against brine shrimps larvae assessed as mortality after 48 hrs. The data set is classed as organism-based. The settings on record: in vivo.

Consider `C#CCCCC[C@@H](C)C(=O)N(C)[C@H](C(=O)N(C)[C@H](C(=O)N[C@H](C(=O)N(C)[C@@H](C)C(=O)N(C)[C@@H](Cc1ccccc1)C(N)=O)C(C)C)C(C)C)C(C)C` [ALMIRAMIDE B] ({Oct7ynoyl(2R-Me)}-[NMeV][NMeV]V[NMeA][NMeF]-NH2), for which the concentration for half-maximal inhibition (IC50) was 107 µM in data set [1]; 53 µM in the data set on HeLa; 76 µM in the data set with A549; 100 µM in the data set on HT-29; 13 µM with MDA-MB-231.

Regarding `COc1cccc2c1C(=O)c1c(O)c3c(c(O)c1C2=O)C[C@@](O)(C(=O)CO)C[C@@H]3O[C@H]1C[C@H](N)[C@H](O)[C@H](C)O1` [DOXORUBICIN], the Activity result in the data set on Artemia was “Non-toxic”. Further, the IC50 is 17 µM in data set [1] and 14 µM in the data set on A549.

On to `C#CCCCC[C@@H](C)C(=O)N(C)[C@H](C(=O)N(C)[C@H](C(=O)N[C@H](C(=O)N(C)[C@H](C(=O)N[C@@H](C)C(N)=O)[C@@H](C)CC)[C@@H](C)CC)C(C)C)C(C)C` ({Oct7ynoyl(2R-Me)}-[NMeV][NMeV]I[NMeI]A-NH2), for which the IC50 in data set [1] is 62 µM; with HeLa, 17 µM; with A549, 59 µM; in the data set on HT-29, 91 µM; in the data set with MDA-MB-231, 821 µM.

One may read the IC50 as the concentration at which inhibition is half-maximal. A high value points to weaker potency in that assay.
